Where a name gives a salt, the structure may show the parent alone.
Tested on: test species shown in Table C (common weeds)
Test: Herbicidal efficacy, glasshouse, all test species of Table C
Format: in vivo
Settings: adjuvant alone, experiments 26d to 29d

SMILES	herbicidal effects in the absence of any active ingredient
CCCCOC(=O)CC(CC(=O)OCCCC)(OC(C)=O)C(=O)OCCCC [O-acetyl tri-n-butyl citrate]	no herbicidal effects
CCCCOC(=O)CC(O)(CC(=O)OCCCC)C(=O)OCCCC [tri-n-butyl citrate]	no herbicidal effects
